Test results as given in the supplement of paper PMC10307832.

Tests used:
Test in all cases: relative viability (nuclei count vs DMSO), 5 days (fraction); higher = more cells survive
[1] = compound: C=CCn1c(=O)c2cnc(Nc3ccc(N4CCN(C)CC4)cc3)nc2n1-c1cccc(C(C)(C)O)n1 [Adavosertib] + N=C(N)NC(=N)NCCc1ccccc1 [Phenformin] (partner 250 µM)
Summary of the method: (§1)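 For relative viability, nuclei counts in treated wells were divided by those in vehicle wells. Lung cancer cell lines had been pin-tool dosed in 1536-well plates the day after seeding and cultured for 5 days, then fixed and stained in one step (final 0.05% Triton X-100, 1% formaldehyde, 1 ug/ml Hoechst) and imaged at 4×. Doses were one drug alone or a fixed anchor-drug dose plus five library-drug doses (not always all listed) in √10 steps, and values are duplicate-plate medians.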

[2] = compound: C=CCn1c(=O)c2cnc(Nc3ccc(N4CCN(C)CC4)cc3)nc2n1-c1cccc(C(C)(C)O)n1 [Adavosertib] + CC(=O)Nc1cccc(-n2c(=O)n(C3CC3)c(=O)c3c(Nc4ccc(I)cc4F)n(C)c(=O)c(C)c32)c1 [Trametinib] (partner 0.02 µM)
Summary of the method: as §1

[3] = compound: COc1nc(N)nc2c1ncn2[C@@H]1O[C@H](CO)[C@@H](O)[C@@H]1O [Nelarabine] + O=C(CCCCCCC(=O)Nc1ccccc1)NO [Vorinostat] (partner 1 µM)
Summary of the method: as §1

[4] = compound: COc1nc(N)nc2c1ncn2[C@@H]1O[C@H](CO)[C@@H](O)[C@@H]1O [Nelarabine] + CC(C)C[C@H](NC(=O)[C@H](Cc1ccccc1)NC(=O)c1cnccn1)B(O)O [Bortezomib] (partner 0.002 µM)
Summary of the method: as §1

Cell Line	relative viability ([1]; first compound 0.01 µM)	relative viability ([1]; first compound 0.03162 µM)	relative viability ([1]; first compound 0.1 µM)	relative viability ([1]; first compound 0.3162 µM)	relative viability ([2]; first compound 0.01 µM)	relative viability ([2]; first compound 0.03162 µM)	relative viability ([2]; first compound 0.1 µM)	relative viability ([2]; first compound 0.3162 µM)	relative viability ([3]; first compound 0.01 µM)	relative viability ([3]; first compound 0.03162 µM)	relative viability ([3]; first compound 0.1 µM)	relative viability ([3]; first compound 0.3162 µM)	relative viability ([3]; first compound 1 µM)	relative viability ([4]; first compound 0.01 µM)	relative viability ([4]; first compound 0.03162 µM)	relative viability ([4]; first compound 0.1 µM)	relative viability ([4]; first compound 0.3162 µM)	relative viability ([4]; first compound 1 µM)
NCI-H358	0.288	0.295	0.322	0.24	0.132	0.124	0.124	0.124	0.852	1.02	0.663	0.791	0.617	–	–	–	–	–
NCI-H520	0.667	0.547	0.657	0.757	0.797	0.65	0.634	0.629	0.905	0.757	0.676	0.746	0.828	0.67	0.552	0.696	0.542	0.529
NCI-H2405	0.458	0.414	0.405	0.396	–	0.63	0.721	0.671	1.2	0.988	1.05	1.03	0.886	1.06	0.943	0.908	1.03	0.954
NCI-H2023	0.437	0.389	0.358	0.193	0.575	0.521	0.62	0.267	0.793	0.821	0.525	0.71	0.687	1.28	1.08	0.864	1.04	0.934
NCI-H1975	0.419	0.392	0.389	0.309	0.303	0.309	0.327	0.415	0.87	0.7	0.778	0.796	0.76	0.362	0.258	0.429	0.399	0.404
EPLC-272H	0.314	0.306	0.353	0.245	0.293	0.309	0.288	0.275	0.313	0.411	0.459	0.387	0.385	1.04	0.925	0.823	0.887	0.981
ChaGo-K-1	0.469	0.506	0.484	0.457	0.884	0.844	0.901	0.883	0.972	0.645	0.723	0.741	0.771	0.997	0.85	1.26	0.93	0.925
NCI-H1648	–	–	–	–	0.536	0.473	0.594	0.448	–	0.761	–	0.412	0.642	–	–	–	–	–
NCI-H522	0.679	0.57	0.691	0.676	0.797	0.75	0.736	0.653	1.02	0.857	0.683	0.867	0.934	–	–	–	–	–
NCI-H1299	–	–	–	–	–	–	–	–	–	–	–	–	–	1.08	1.09	1.05	1.06	1.01
NCI-H1944	0.23	0.202	0.19	0.206	0.376	0.377	0.378	0.372	0.669	0.549	0.54	0.559	0.538	–	–	–	–	–
NCI-H2170	0.444	0.404	0.407	0.441	0.946	0.972	0.831	0.745	1.09	0.835	0.742	0.878	0.71	–	–	–	–	–
SW 900	–	0.75	0.564	0.387	0.682	0.892	0.957	0.696	0.471	0.567	0.795	0.628	0.448	–	–	–	–	–
NCI-H1563	0.692	0.603	0.667	0.642	–	–	–	–	–	–	–	–	–	0.943	0.903	0.766	0.84	0.908
NCI-H2342	0.569	0.587	0.571	0.572	0.922	0.829	0.776	0.848	0.933	0.753	0.806	0.74	0.728	–	–	–	–	–
LK-2	0.75	0.435	0.364	0.397	0.759	0.823	0.701	0.84	0.242	0.256	0.334	0.294	0.283	–	–	–	–	–
IA-LM	–	–	–	–	–	–	–	–	1.11	1	0.854	1.11	0.884	0.989	1.04	0.986	0.927	0.748
NCI-H1793	0.356	0.385	0.414	0.273	0.44	0.421	0.501	0.395	1.05	–	0.885	0.987	0.784	–	–	–	–	–
NCI-H1623	0.553	0.629	0.563	0.652	–	–	–	–	–	–	–	–	–	–	–	–	–	–
Calu-6	–	–	–	–	–	–	–	–	–	–	–	–	–	1.1	–	1.05	0.947	1.08
NCI-H1792	0.27	0.217	–	0.259	0.378	0.505	0.448	0.42	–	–	–	–	–	1.28	–	1.05	1.17	0.85
